Columns and labels:
[1] = target: 3-phosphoinositide-dependent protein kinase 1 (Homo sapiens) (UniProt O15530); assay: Inhibition of PDK1 Lys1 labeling site in human PC-3 cell lysate at 10 uM by KiNativ profiling analysis relative to control
[2] = target: Serine/threonine-protein kinase MRCK alpha (Homo sapiens) (UniProt Q5VT25); assay: Inhibition of T7 bacteriophage fused human MRCKA at 10 uM by KINOMEscan analysis relative to control
[3] = target: Dual specificity mitogen-activated protein kinase kinase 4 (Homo sapiens) (UniProt P45985); assay: Inhibition of T7 bacteriophage fused human MEK4 at 10 uM by KINOMEscan analysis relative to control
Dual specificity mitogen-activated protein kinase kinase 4 (Homo sapiens), sequence (P45985 whole entry, the tested form may be a part): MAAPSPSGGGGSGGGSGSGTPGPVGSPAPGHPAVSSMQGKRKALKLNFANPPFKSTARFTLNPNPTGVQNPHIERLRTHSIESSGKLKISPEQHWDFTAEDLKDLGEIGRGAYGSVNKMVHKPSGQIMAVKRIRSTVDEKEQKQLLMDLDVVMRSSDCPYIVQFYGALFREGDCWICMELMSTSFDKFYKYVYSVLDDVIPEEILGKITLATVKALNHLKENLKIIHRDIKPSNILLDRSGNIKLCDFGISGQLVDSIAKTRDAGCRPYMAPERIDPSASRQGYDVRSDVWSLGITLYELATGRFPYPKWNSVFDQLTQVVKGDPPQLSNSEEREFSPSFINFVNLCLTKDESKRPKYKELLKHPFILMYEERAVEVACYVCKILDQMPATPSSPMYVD

[4] = target: Phosphatidylinositol 5-phosphate 4-kinase type-2 gamma (Homo sapiens) (UniProt Q8TBX8); assay: Inhibition of T7 bacteriophage fused human PIP5K2C at 10 uM by KINOMEscan analysis relative to control
[5] = test system: Epidermal growth factor receptor (Homo sapiens), P00533 [T790M]; assay: Inhibition of T7 bacteriophage fused human EGFR T790M mutant at 10 uM by KINOMEscan analysis relative to control; values are per cent of control
[6] = target: Interleukin-1 receptor-associated kinase 1 (Homo sapiens) (UniProt P51617); assay: Inhibition of T7 bacteriophage fused human IRAK1 at 10 uM by KINOMEscan analysis relative to control
[7] = target: Mitogen-activated protein kinase 11 (Homo sapiens) (UniProt Q15759); assay: Inhibition of T7 bacteriophage fused human p38-beta at 10 uM by KINOMEscan analysis relative to control; values are per cent of control
[8] = target: Insulin receptor (Homo sapiens) (UniProt P06213); assay: Inhibition of T7 bacteriophage fused human INSR at 10 uM by KINOMEscan analysis relative to control; values are per cent of control
[9] = target: MAP kinase-activated protein kinase 5 (Homo sapiens) (UniProt Q8IW41); assay: Inhibition of T7 bacteriophage fused human MAPKAPK5 at 10 uM by KINOMEscan analysis relative to control; values are per cent of control
[10] = test system: Mast/stem cell growth factor receptor Kit (Homo sapiens), P10721 [V559D,T670I]; assay: Inhibition of T7 bacteriophage fused human KIT V559D/T670I mutant at 10 uM by KINOMEscan analysis relative to control; values are per cent of control
[11] = target: Serine/threonine-protein kinase TAO2 (Homo sapiens) (UniProt Q9UL54); assay: Inhibition of T7 bacteriophage fused human TAOK2 at 10 uM by KINOMEscan analysis relative to control
[12] = target: Tyrosine-protein kinase HCK (Homo sapiens) (UniProt P08631); assay: Inhibition of T7 bacteriophage fused human HCK at 10 uM by KINOMEscan analysis relative to control
Tyrosine-protein kinase HCK (Homo sapiens), sequence (P08631 2-526 limits assumed): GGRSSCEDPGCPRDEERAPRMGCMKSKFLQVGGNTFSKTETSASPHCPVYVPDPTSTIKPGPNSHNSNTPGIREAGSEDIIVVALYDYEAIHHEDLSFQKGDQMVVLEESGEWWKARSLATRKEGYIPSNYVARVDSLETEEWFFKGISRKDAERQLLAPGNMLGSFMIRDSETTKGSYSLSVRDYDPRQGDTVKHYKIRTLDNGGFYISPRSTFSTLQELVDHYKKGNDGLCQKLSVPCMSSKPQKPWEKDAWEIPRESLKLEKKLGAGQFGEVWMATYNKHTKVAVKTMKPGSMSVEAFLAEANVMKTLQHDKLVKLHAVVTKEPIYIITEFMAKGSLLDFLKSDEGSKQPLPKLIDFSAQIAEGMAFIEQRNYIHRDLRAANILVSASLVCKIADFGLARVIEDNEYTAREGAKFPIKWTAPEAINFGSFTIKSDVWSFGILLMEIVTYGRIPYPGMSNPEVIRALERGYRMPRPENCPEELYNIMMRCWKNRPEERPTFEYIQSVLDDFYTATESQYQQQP

[13] = target: BMP-2-inducible protein kinase (Homo sapiens) (UniProt Q9NSY1); assay: Inhibition of T7 bacteriophage fused human BIKE at 10 uM by KINOMEscan analysis relative to control
[14] = target: Serine/threonine-protein kinase SIK3 (Homo sapiens) (UniProt Q9Y2K2); assay: Inhibition of T7 bacteriophage fused human QSK at 10 uM by KINOMEscan analysis relative to control
[15] = test system: Proto-oncogene tyrosine-protein kinase receptor Ret (Homo sapiens), P07949 [V804M]; assay: Inhibition of T7 bacteriophage fused human RET V804M mutant at 10 uM by KINOMEscan analysis relative to control
[16] = target: Discoidin domain-containing receptor 2 (Homo sapiens) (UniProt Q16832); assay: Inhibition of T7 bacteriophage fused human DDR2 at 10 uM by KINOMEscan analysis relative to control
[17] = target: Mitogen-activated protein kinase 4 (Homo sapiens) (UniProt P31152); assay: Inhibition of T7 bacteriophage fused human ERK4 at 10 uM by KINOMEscan analysis relative to control
[18] = target: Serine/threonine-protein kinase PknB (Mycobacterium tuberculosis) (UniProt P9WI81); assay: Inhibition of T7 bacteriophage fused […] tuberculosis PKNB at 10 uM by KINOMEscan analysis relative to control
Serine/threonine-protein kinase PknB (Mycobacterium tuberculosis), sequence (P9WI81 whole entry, the tested form may be a part): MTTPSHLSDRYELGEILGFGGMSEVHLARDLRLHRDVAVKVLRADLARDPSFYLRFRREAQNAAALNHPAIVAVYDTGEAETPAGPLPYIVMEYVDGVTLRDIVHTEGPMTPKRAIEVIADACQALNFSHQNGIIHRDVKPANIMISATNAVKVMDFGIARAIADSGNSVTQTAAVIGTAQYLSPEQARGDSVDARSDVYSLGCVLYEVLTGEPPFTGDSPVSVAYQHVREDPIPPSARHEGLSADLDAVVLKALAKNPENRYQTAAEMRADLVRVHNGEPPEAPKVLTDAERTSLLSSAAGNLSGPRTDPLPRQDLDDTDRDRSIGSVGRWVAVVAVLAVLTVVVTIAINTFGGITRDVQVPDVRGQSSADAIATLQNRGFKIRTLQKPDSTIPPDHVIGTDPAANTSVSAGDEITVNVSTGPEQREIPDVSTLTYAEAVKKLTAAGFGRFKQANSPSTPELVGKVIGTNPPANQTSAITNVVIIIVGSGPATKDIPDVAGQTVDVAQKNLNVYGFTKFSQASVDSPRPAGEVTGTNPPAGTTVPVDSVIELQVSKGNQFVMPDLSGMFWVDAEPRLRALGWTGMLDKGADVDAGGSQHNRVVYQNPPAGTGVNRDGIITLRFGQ

[19] = target: Rhodopsin kinase GRK7 (Homo sapiens) (UniProt Q8WTQ7); assay: Inhibition of T7 bacteriophage fused human GRK7 at 10 uM by KINOMEscan analysis relative to control
Rhodopsin kinase GRK7 (Homo sapiens), sequence (Q8WTQ7 whole entry, the tested form may be a part): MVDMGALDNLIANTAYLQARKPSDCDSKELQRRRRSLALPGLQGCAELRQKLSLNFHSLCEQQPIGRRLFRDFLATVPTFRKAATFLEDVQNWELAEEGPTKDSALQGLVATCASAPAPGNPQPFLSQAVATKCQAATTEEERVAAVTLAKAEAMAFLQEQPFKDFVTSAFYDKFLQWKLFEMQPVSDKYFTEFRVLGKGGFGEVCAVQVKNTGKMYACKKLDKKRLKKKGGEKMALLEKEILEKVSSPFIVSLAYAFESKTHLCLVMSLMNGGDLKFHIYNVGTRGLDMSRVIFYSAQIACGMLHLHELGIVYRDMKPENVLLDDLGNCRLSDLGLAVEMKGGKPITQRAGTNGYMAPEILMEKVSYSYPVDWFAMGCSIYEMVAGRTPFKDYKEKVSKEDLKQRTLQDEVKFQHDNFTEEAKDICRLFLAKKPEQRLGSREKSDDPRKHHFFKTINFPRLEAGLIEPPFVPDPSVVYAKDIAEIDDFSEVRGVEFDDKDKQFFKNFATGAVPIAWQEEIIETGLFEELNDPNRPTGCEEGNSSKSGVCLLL

[20] = target: Cyclin-dependent kinase-like 1 (Homo sapiens) (UniProt Q00532); assay: Inhibition of T7 bacteriophage fused human CDKL1 at 10 uM by KINOMEscan analysis relative to control
[21] = test system: Phosphatidylinositol 4,5-bisphosphate 3-kinase catalytic subunit alpha isoform (Homo sapiens), P42336 [I800L]; assay: Inhibition of T7 bacteriophage fused human PIK3CA I800L mutant at 10 uM by KINOMEscan analysis relative to control
[22] = target: Serine/threonine-protein kinase PAK 3 (Homo sapiens) (UniProt O75914); assay: Inhibition of T7 bacteriophage fused human PAK3 at 10 uM by KINOMEscan analysis relative to control
[23] = target: Cyclin-dependent kinase 9 (Homo sapiens) (UniProt P50750); assay: Inhibition of T7 bacteriophage fused human CDK9 at 10 uM by KINOMEscan analysis relative to control
[24] = target: Mitogen-activated protein kinase 6 (Homo sapiens) (UniProt Q16659); assay: Inhibition of T7 bacteriophage fused human ERK3 at 10 uM by KINOMEscan analysis relative to control
[25] = target: Casein kinase II subunit alpha (Homo sapiens) (UniProt P68400); assay: Inhibition of T7 bacteriophage fused human CSNK2A1 at 10 uM by KINOMEscan analysis relative to control
Casein kinase II subunit alpha (Homo sapiens), sequence (P68400 whole entry, looked up, the tested form may be a part): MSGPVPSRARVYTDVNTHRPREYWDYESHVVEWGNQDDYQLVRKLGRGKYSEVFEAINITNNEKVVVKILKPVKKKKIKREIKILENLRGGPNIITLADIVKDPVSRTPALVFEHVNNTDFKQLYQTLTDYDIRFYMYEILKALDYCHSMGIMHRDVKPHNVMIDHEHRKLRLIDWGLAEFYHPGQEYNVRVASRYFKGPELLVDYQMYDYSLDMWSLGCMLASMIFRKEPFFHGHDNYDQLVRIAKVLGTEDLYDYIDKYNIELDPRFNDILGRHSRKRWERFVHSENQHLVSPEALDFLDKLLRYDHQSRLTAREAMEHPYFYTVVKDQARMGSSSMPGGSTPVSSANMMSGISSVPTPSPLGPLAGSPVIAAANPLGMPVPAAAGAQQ

[26] = target: cAMP-dependent protein kinase catalytic subunit alpha (Homo sapiens) (UniProt P17612); assay: Inhibition of T7 bacteriophage fused human PKAC-alpha at 10 uM by KINOMEscan analysis relative to control
[27] = target: Mitogen-activated protein kinase 15 (Homo sapiens) (UniProt Q8TD08); assay: Inhibition of T7 bacteriophage fused human ERK8 at 10 uM by KINOMEscan analysis relative to control
Mitogen-activated protein kinase 15 (Homo sapiens), sequence (Q8TD08 whole entry, the tested form may be a part): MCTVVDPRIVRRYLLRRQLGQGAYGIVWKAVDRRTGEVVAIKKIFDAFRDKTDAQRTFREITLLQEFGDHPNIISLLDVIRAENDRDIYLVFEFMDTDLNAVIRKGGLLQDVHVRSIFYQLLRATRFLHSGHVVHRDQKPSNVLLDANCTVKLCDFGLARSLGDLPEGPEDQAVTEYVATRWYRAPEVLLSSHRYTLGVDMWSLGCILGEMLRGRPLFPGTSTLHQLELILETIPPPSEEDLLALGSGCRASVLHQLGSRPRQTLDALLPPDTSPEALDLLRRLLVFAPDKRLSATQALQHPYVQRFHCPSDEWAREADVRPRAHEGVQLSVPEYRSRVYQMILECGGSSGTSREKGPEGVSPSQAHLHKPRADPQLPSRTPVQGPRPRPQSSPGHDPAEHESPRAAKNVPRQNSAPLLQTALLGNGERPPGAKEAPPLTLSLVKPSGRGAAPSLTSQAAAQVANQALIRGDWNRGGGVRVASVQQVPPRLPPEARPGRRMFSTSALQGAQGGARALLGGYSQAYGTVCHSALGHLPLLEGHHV

[28] = target: Serine/threonine-protein kinase NIM1 (Homo sapiens) (UniProt Q8IY84); assay: Inhibition of T7 bacteriophage fused human NIM1 at 10 uM by KINOMEscan analysis relative to control
Serine/threonine-protein kinase NIM1 (Homo sapiens), sequence (Q8IY84 whole entry, the tested form may be a part): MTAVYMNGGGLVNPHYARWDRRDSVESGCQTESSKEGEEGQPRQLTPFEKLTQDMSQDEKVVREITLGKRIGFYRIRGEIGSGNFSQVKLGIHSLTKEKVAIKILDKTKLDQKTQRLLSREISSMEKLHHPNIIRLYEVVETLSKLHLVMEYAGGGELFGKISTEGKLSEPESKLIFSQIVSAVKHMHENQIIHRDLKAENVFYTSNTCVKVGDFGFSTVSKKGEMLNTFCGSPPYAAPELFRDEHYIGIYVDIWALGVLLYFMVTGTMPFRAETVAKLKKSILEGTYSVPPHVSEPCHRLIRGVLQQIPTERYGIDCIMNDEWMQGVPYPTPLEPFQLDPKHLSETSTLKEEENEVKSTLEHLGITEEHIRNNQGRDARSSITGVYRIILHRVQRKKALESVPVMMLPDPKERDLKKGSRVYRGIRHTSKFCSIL

[29] = target: Insulin receptor-related protein (Homo sapiens) (UniProt P14616); assay: Inhibition of T7 bacteriophage fused human INSRR at 10 uM by KINOMEscan analysis relative to control; values are per cent of control
Insulin receptor-related protein (Homo sapiens), sequence (P14616 27-742 limits assumed): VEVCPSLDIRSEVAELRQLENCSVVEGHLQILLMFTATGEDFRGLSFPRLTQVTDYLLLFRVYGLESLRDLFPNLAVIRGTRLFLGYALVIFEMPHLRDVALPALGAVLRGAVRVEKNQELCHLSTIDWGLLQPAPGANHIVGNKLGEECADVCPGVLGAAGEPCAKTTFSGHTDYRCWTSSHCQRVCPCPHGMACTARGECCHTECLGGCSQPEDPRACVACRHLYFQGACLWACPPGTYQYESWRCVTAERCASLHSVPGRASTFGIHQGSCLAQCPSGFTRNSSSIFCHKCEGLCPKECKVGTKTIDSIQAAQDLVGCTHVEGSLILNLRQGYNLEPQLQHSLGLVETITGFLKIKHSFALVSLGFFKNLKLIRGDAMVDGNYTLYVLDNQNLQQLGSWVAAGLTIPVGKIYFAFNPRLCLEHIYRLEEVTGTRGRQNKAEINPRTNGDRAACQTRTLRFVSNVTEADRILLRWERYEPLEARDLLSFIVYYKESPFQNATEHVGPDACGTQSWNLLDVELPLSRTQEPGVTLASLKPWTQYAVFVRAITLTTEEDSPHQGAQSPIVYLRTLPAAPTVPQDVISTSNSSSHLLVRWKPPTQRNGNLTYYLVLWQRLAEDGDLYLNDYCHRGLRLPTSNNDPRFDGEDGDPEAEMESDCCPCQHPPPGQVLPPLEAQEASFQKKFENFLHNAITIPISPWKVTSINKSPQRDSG
Insulin receptor-related protein (Homo sapiens), sequence (P14616 747-1297 limits assumed): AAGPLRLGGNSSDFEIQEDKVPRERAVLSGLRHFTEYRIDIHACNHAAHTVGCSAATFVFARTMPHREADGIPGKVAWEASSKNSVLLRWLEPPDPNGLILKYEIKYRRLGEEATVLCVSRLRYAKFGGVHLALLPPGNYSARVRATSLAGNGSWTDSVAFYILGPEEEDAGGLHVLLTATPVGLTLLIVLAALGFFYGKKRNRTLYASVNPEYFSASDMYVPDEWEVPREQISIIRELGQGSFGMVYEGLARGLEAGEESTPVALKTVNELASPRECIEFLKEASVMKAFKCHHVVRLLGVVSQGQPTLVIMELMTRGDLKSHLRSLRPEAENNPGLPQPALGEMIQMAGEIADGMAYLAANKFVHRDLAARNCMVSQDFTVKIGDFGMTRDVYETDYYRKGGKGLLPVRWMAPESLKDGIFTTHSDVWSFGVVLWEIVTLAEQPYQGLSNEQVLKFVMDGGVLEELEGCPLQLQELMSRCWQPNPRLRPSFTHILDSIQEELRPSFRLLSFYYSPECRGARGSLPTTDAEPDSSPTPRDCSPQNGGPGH

[30] = target: Serine/threonine-protein kinase STK11 (Homo sapiens) (UniProt Q15831); assay: Inhibition of LKB1 Lys2 labeling site in human HEL cell lysate at 10 uM by KiNativ profiling analysis relative to control; format: subcellular

CCOc1cc(C(=O)N2CCC(N3CCN(C)CC3)CC2)ccc1Nc1ncc2c(n1)N(C1CCCC1)c1ccccc1C(=O)N2C
inhibition [1]: 0%

COc1cc(N2CCC(N3CCN(C)CC3)CC2)ccc1Nc1ncc2c(n1)N(C)c1ccccc1C(=O)N2C
inhibition [2]: 100%
inhibition [3]: 100%
inhibition [4]: 40%
residual activity [5]: 88%
inhibition [6]: 100%
residual activity [7]: 60%
residual activity [8]: 84%
residual activity [9]: 97%
residual activity [10]: 81%
inhibition [11]: 65%
inhibition [12]: 100%
inhibition [13]: 100%
inhibition [14]: 100%
inhibition [15]: 80%
inhibition [16]: 100%
inhibition [17]: 100%
inhibition [18]: 100%
inhibition [19]: 100%
inhibition [20]: 78%
inhibition [21]: 38%
inhibition [22]: 83%
inhibition [23]: 100%
inhibition [24]: 100%
inhibition [25]: 100%
inhibition [26]: 100%
inhibition [27]: 100%
inhibition [28]: 100%
residual activity [29]: 97%

COc1cc(C(=O)N2CCC(N3CCN(C)CC3)CC2)ccc1Nc1ncc2c(n1)N(C1CCCC1)c1ccccc1C(=O)N2C
inhibition [30]: -0.3%

Reference: ChEMBL document CHEMBL5678810
